Measured values as given in patent US20110081675A1, “Metabolic Biomarkers Of Drug-Induced Cardiotoxicity” (WISCONSIN ALUMNI RESEARCH FOUNDATION, priority 2009, published 2011).

Experiments:
human cardiomyocytes = test system: human cardiomyocytes
Description: The percentage of cell death, inherently and after drug treatment, was calculated by Trypan Blue staining (FIG. 2).
The doses for each compound were based upon published standards, equivalent to therapeutic circulating levels whenever possible (see Table 1).

[1] = test system: human cardiomyocytes (Celprogen 36044-15at); test: LC-ESI-TOF-MS metabolomics of extracellular media of drug-treated human cardiomyocytes (Tables 2A-2C); type: cell-based; conditions: 15uM paclitaxel
Description: Data for statistical analysis were extracted from chromatograms using the Agilent Mass Hunter software (Product No. G3297AA, Agilent Technologies, Inc., Santa Clara, Calif.); it will be understood that alternative statistical analysis methods can be used. Masses were binned together if they were within 10 ppm and eluted within a 2 minutes retention time window. A binned mass was considered to be the same molecule across different LC-ESI-TOF-MS analyses (referred to herein as an “exact mass,” which will be understood to be ±10 ppm). Binning of the data is required for statistical analysis and comparison of masses across the entire experiment. If multiple peaks with the same mass at the same retention time within a single sample were detected by Mass Hunter, they were averaged to assist data analysis. Masses lacking a natural isotopic distribution or with an absolute height of less than 1000 were removed from the data prior to analysis. It would be understood that the results from this assay provide relative values that are assessed according to annotated values within 10 ppm to provide an identity for the molecular weight detected. Thus, a mass shift within 10 ppm is considered consistent with determining the identity of a specific cellular metabolite previously annotated due to differences in ionization source and instrumentation, e.g. between different experiments or using different instruments.
As used herein, a mass was considered to be the same across LC/ESI-TOF-MS runs using a simple algorithm that first sorts the data by mass and retention time. […] If a series of measurements fit this definition it was considered to be from the same compound. If either the mass or the retention time varied by more than the limits listed above it was considered to be a different compound and given a new unique designation.
The data from the most reproducible mass features was log base 2 transformed and median centered prior to statistical analysis. […] To test the null hypothesis a one way permutation based t-test assuming a normal approximation of the conditional distribution was used and implement using the Conditional Inference Procedures in a Permutation Test Framework (Coin) library, a contributed package of programming code. Statistics tests were performed without replacement of missing values decrease the degrees of freedom rather than imputing missing values. […] False discovery rates (FDR) were controlled using the Q value estimator (Storey et al., 2003, Proc Natl Acad. Sci., 100:9440-5) and implemented using the qvalue library in R (Dabney et al., 2003, qvalue: Q-value estimation for false discovery rate control. R package version 1.10.0., www.CRAN.R-project.org).
The extracellular media from treated and untreated cells was processed as described in Cezar et al., (2007, Stem Cells Development 16: 869-882, this publication is incorporated by reference), for extraction of low molecular weight molecules (<3 kD) for metabolomics analysis. Extracellular low molecular weight molecule preparations were separated by liquid chromatography followed by electrospray ionization time of flight (LC-ESI-TOF-MS) mass spectrometry for ionization and detection of the full spectra of low molecular weight molecules present in each sample. More specifically, the samples were separated using the ESI_Luna_HILIC—95_t—06OACN—16 min method (HILIC chromatography). Statistical differences were inferred by subsequent bioinformatics and in silico mapping of deisotoped ESI-TOF-MS mass features as described below (also provided in Cezar et al. (2007, id.)).
Briefly, ionization (100 m/z-1500 m/z) was acquired on an Agilent 6520 Accurate-Mass Q-TOF in extended dynamic range and positive mode. Mass features were generated using two independent methods. First MassHunter Qualitative Analysis was used to generate mass features using the Molecular Feature Extraction algorithm (MFE).

CC(=O)O[C@H]1C(=O)[C@@]2(C)[C@H]([C@H](OC(=O)c3ccccc3)[C@]3(O)C[C@H](OC(=O)[C@H](O)[C@@H](NC(=O)c4ccccc4)c4ccccc4)C(C)=C1C3(C)C)[C@]1(OC(C)=O)CO[C@@H]1C[C@@H]2O [Paclitaxel]
cell death (in words) (human cardiomyocytes): significantly higher cell death | pacfold ([1]; feature cpdID 36, neutral mass 101.1204, RT 0.720145, Triethylamine or Hexylamine): 1.413 fold | pacfold ([1]; feature cpdID 8902, neutral mass 276.1256, RT 8.733378, no hit): 2.728 fold | pacfold ([1]; feature cpdID 11232, neutral mass 311.1029, RT 7.400847, p-Glucosyloxymandelonitrile or (S)-4-Hydroxymandelonitrile beta-D-glucoside): 4.25 fold | pacfold ([1]; feature cpdID 14190, neutral mass 356.253, RT 1.103957, HMDB04239, 13,14-dihydro PGE1 or Prostaglandin F1alpha): 12.08 fold | pacfold ([1]; feature cpdID 15112, neutral mass 372.0557, RT […], no hit): −1.026 fold | pacfold ([1]; feature cpdID 16504, neutral mass 393.0913, RT 7.25538, no hit): 1.219 fold | pacfold ([1]; feature cpdID 16939, neutral mass 400.2796, RT 1.108613, 7-Ketocholesterol): 11.76 fold | pacfold ([1]; feature cpdID 17096, neutral mass 403.1776, RT 6.2306, no hit): −2.028 fold | pacfold ([1]; feature cpdID 19500, neutral mass 444.3034, RT 1.106333, […]-Dihydroxyvitamin D3-26,23-lactone): 17.08 fold | pacfold ([1]; feature cpdID 19704, neutral mass 448.1344, RT 7.184483, no hit): 2.694 fold | pacfold ([1]; feature cpdID 21926, neutral mass 488.3323, RT 1.106573, no hit): 8.467 fold | pacfold ([1]; feature cpdID 23129, neutral mass 515.181, RT 10.44297, no hit): 1.263 fold | pacfold ([1]; feature cpdID 23163, neutral mass 516.1241, RT 7.217222, Formononetin 7-O-glucoside-6″-O-malonate, Isochlorogenic acid b or 13-Dicaffeoylquinic acid): 2.288 fold | pacfold ([1]; feature cpdID 24142, neutral mass 538.2779, RT 0.783395, no hit): 1.807 fold | pacfold ([1]; feature cpdID 25445, neutral mass 572.1055, RT 7.089848, no hit): 1.259 fold | pacfold ([1]; feature cpdID 25601, neutral mass 576.3861, RT 1.10751, 3-Hexaprenyl-4-hydroxy-5-methoxybenzoic acid): 5.623 fold | pacfold ([1]; feature cpdID 27363, neutral mass 620.4117, RT 1.108317, no hit): 3.53 fold | pacfold ([1]; feature cpdID 28720, neutral mass 661.1924, RT 6.495524, no hit): 1.205 fold | pacfold ([1]; feature cpdID 29101, neutral mass 672.1828, RT 6.528464, no hit): 2.408 fold | pacfold ([1]; feature cpdID 29124, neutral mass 672.6836, RT 6.559082, no hit): 1.432 fold | pacfold ([1]; feature cpdID 29227, neutral mass 676.1781, RT 1.298314, no hit): −1.322 fold | pacfold ([1]; feature cpdID 31637, neutral mass 744.1091, RT 1.26415, no hit): −1.129 fold | pacfold ([1]; feature cpdID 37922, neutral mass 932.7613, RT 6.562271, no hit): 1.506 fold | pacfold ([1]; feature cpdID 40510, neutral mass 1040.322, RT 6.499979, no hit): 1.465 fold | pacfold ([1]; feature cpdID 42137, neutral mass 1122.172, RT 1.256606, no hit): −2.322 fold | pacfold ([1]; feature cpdID 45209, neutral mass 1300.402, RT 6.501484, no hit): 1.771 fold | pacfold ([1]; feature cpdID 45486, neutral mass 1322.385, RT 6.518707, no hit): 1.836 fold
